Assay: Solubility of FDCA for a given temperature and solvent
Type: physicochemical
Details: for Solubility at T, wt % in solvent / Solubility at temp., wt % in solvent: estimated FDCA solubility
Source text: The skilled person can adjust the thermal treatment conditions to the required degree of dissolution, wherein the following table can be used that lists values for the solubility of FDCA at a given temperature depending on the solvent composition employed. […] Intermediate values can be obtained by interpolation.
For a better understanding, the estimated FDCA solubility in the given solvent at the process temperature is provided as well.

O=C(O)c1ccc(C(=O)O)o1 [FDCA, 2,5-Furandicarboxylic acid]
Solubility of FDCA (HAc:Water 0:100 by weight, 140° C.): 7.0 wt % | Solubility of FDCA (HAc:Water 0:100 by weight, 150° C.): 9.2 wt % | Solubility of FDCA (HAc:Water 0:100 by weight, 160° C.): 11.7 wt % | Solubility of FDCA (HAc:Water 0:100 by weight, 170° C.): 14.8 wt % | Solubility of FDCA (HAc:Water 0:100 by weight, 180° C.): 18.4 wt % | Solubility of FDCA (HAc:Water 0:100 by weight, 190° C.): 22.4 wt % | Solubility of FDCA (HAc:Water 0:100 by weight, 200° C.): 26.8 wt % | Solubility of FDCA (HAc:Water 10:90 by weight, 140° C.): 7.7 wt % | Solubility of FDCA (HAc:Water 10:90 by weight, 150° C.): 9.9 wt % | Solubility of FDCA (HAc:Water 10:90 by weight, 160° C.): 12.6 wt % | Solubility of FDCA (HAc:Water 10:90 by weight, 170° C.): 15.6 wt % | Solubility of FDCA (HAc:Water 10:90 by weight, 180° C.): 19.2 wt % | Solubility of FDCA (HAc:Water 10:90 by weight, 190° C.): 23.1 wt % | Solubility of FDCA (HAc:Water 10:90 by weight, 200° C.): 27.4 wt % | Solubility of FDCA (HAc:Water 20:80 by weight, 140° C.): 8.3 wt % | Solubility of FDCA (HAc:Water 20:80 by weight, 150° C.): 10.6 wt % | Solubility of FDCA (HAc:Water 20:80 by weight, 160° C.): 13.3 wt % | Solubility of FDCA (HAc:Water 20:80 by weight, 170° C.): 16.3 wt % | Solubility of FDCA (HAc:Water 20:80 by weight, 180° C.): 19.8 wt % | Solubility of FDCA (HAc:Water 20:80 by weight, 190° C.): 23.7 wt % | Solubility of FDCA (HAc:Water 20:80 by weight, 200° C.): 27.8 wt % | Solubility of FDCA (HAc:Water 30:70 by weight, 140° C.): 8.9 wt % | Solubility of FDCA (HAc:Water 30:70 by weight, 150° C.): 11.1 wt % | Solubility of FDCA (HAc:Water 30:70 by weight, 160° C.): 13.8 wt % | Solubility of FDCA (HAc:Water 30:70 by weight, 170° C.): 16.8 wt % | Solubility of FDCA (HAc:Water 30:70 by weight, 180° C.): 20.1 wt % | Solubility of FDCA (HAc:Water 30:70 by weight, 190° C.): 23.8 wt % | Solubility of FDCA (HAc:Water 30:70 by weight, 200° C.): 27.8 wt % | Solubility of FDCA (HAc:Water 40:60 by weight, 140° C.): 9.1 wt % | Solubility of FDCA (HAc:Water 40:60 by weight, 150° C.): 11.3 wt % | Solubility of FDCA (HAc:Water 40:60 by weight, 160° C.): 13.9 wt % | Solubility of FDCA (HAc:Water 40:60 by weight, 170° C.): 16.7 wt % | Solubility of FDCA (HAc:Water 40:60 by weight, 180° C.): 19.9 wt % | Solubility of FDCA (HAc:Water 40:60 by weight, 190° C.): 23.4 wt % | Solubility of FDCA (HAc:Water 40:60 by weight, 200° C.): 27.1 wt % | Solubility of FDCA (HAc:Water 50:50 by weight, 140° C.): 9.0 wt % | Solubility of FDCA (HAc:Water 50:50 by weight, 150° C.): 11.0 wt % | Solubility of FDCA (HAc:Water 50:50 by weight, 160° C.): 13.4 wt % | Solubility of FDCA (HAc:Water 50:50 by weight, 170° C.): 16.0 wt % | Solubility of FDCA (HAc:Water 50:50 by weight, 180° C.): 19.0 wt % | Solubility of FDCA (HAc:Water 50:50 by weight, 190° C.): 22.1 wt % | Solubility of FDCA (HAc:Water 50:50 by weight, 200° C.): 25.6 wt % | Solubility of FDCA (HAc:Water 60:40 by weight, 140° C.): 8.2 wt % | Solubility of FDCA (HAc:Water 60:40 by weight, 150° C.): 10.0 wt % | Solubility of FDCA (HAc:Water 60:40 by weight, 160° C.): 12.1 wt % | Solubility of FDCA (HAc:Water 60:40 by weight, 170° C.): 14.5 wt % | Solubility of FDCA (HAc:Water 60:40 by weight, 180° C.): 17.0 wt % | Solubility of FDCA (HAc:Water 60:40 by weight, 190° C.): 19.9 wt % | Solubility of FDCA (HAc:Water 60:40 by weight, 200° C.): 22.9 wt % | Solubility of FDCA (HAc:Water 70:30 by weight, 140° C.): 6.8 wt % | Solubility of FDCA (HAc:Water 70:30 by weight, 150° C.): 8.3 wt % | Solubility of FDCA (HAc:Water 70:30 by weight, 160° C.): 10.0 wt % | Solubility of FDCA (HAc:Water 70:30 by weight, 170° C.): 12.0 wt % | Solubility of FDCA (HAc:Water 70:30 by weight, 180° C.): 14.2 wt % | Solubility of FDCA (HAc:Water 70:30 by weight, 190° C.): 16.6 wt % | Solubility of FDCA (HAc:Water 70:30 by weight, 200° C.): 19.2 wt % | Solubility of FDCA (HAc:Water 80:20 by weight, 140° C.): 4.9 wt % | Solubility of FDCA (HAc:Water 80:20 by weight, 150° C.): 6.1 wt % | Solubility of FDCA (HAc:Water 80:20 by weight, 160° C.): 7.5 wt % | Solubility of FDCA (HAc:Water 80:20 by weight, 170° C.): 9.1 wt % | Solubility of FDCA (HAc:Water 80:20 by weight, 180° C.): 10.9 wt % | Solubility of FDCA (HAc:Water 80:20 by weight, 190° C.): 12.9 wt % | Solubility of FDCA (HAc:Water 80:20 by weight, 200° C.): 15.1 wt % | Solubility of FDCA (HAc:Water 90:10 by weight, 140° C.): 3.5 wt % | Solubility of FDCA (HAc:Water 90:10 by weight, 150° C.): 4.5 wt % | Solubility of FDCA (HAc:Water 90:10 by weight, 160° C.): 5.6 wt % | Solubility of FDCA (HAc:Water 90:10 by weight, 170° C.): 7.0 wt % | Solubility of FDCA (HAc:Water 90:10 by weight, 180° C.): 8.7 wt % | Solubility of FDCA (HAc:Water 90:10 by weight, 190° C.): 10.6 wt % | Solubility of FDCA (HAc:Water 90:10 by weight, 200° C.): 12.8 wt % | Solubility of FDCA (HAc:Water 95:5 by weight, 140° C.): 3.3 wt % | Solubility of FDCA (HAc:Water 95:5 by weight, 150° C.): 4.4 wt % | Solubility of FDCA (HAc:Water 95:5 by weight, 160° C.): 5.7 wt % | Solubility of FDCA (HAc:Water 95:5 by weight, 170° C.): 7.3 wt % | Solubility of FDCA (HAc:Water 95:5 by weight, 180° C.): 9.3 wt % | Solubility of FDCA (HAc:Water 95:5 by weight, 190° C.): 11.6 wt % | Solubility of FDCA (HAc:Water 95:5 by weight, 200° C.): 14.3 wt % | Solubility at T, wt % in solvent (HAc:Water 0:100, 130° C. (test Comp. 4)): 5.3 wt % in solvent | Solubility at temp., wt % in solvent (HAc:Water 0:100, 180° C. (test Ex. 3)): 18.4 wt % in solvent | Solubility at T, wt % in solvent (HAc:Water 70:30, 125° C. (test Comp. 3)): 6.1 wt % in solvent | Solubility at temp., wt % in solvent (HAc:Water 70:30, 180° C. (tests Ex. 1, Ex. 2)): 14.2 wt % in solvent

Reference: patent publication US12371411B2, “Water and thermal treatment of purified 2,5-furandicarboxylic acid” (Furanix Technologies B.V., priority 2019, dated 2025)
